Test results taken from patent US20160318897A1, “AZOLE COMPOUNDS CARRYING AN IMINE-DERIVED SUBSTITUENT” (BASF SE, priority 2013, published 2016).

Experiments:
Format in all cases: in vivo
Aphis craccivora = experiment: Cowpea aphid (Aphis craccivora) spray test on potted cowpea plants; conditions: after 72 hours, read-out: mortality in comparison with untreated controls
Method: B.3 Cowpea Aphid (Aphis Craccivora)
The active compound is dissolved at the desired concentration in a mixture of 1:1 (vol:vol) distilled water:acetone. Surfactant (Kinetic HV) is added at a rate of 0.01% (vol/vol). The test solution is prepared at the day of use.
Potted cowpea plants were colonized with approximately 50-100 aphids of various stages by manually transferring a leaf tissue cut from infested plant 24 hours before application. Plants were sprayed after the pest population has been recorded. Treated plants are maintained on light carts at about 28° C. Percent mortality was assessed after 72 hours.

Plutella xylostella = experiment: Diamond back moth (Plutella xylostella) cabbage leaf dip test; conditions: foliar, 3rd instar larvae, 72 hours after treatment, read-out: mortality in comparison with untreated controls
Method: B.8 Diamond Back Moth (Plutella xylostella)
The active compound is dissolved at the desired concentration in a mixture of 1:1 (vol:vol) distilled water:aceteone. Surfactant (Kinetic HV) is added at a rate of 0.01% (vol/vol). The test solution is prepared at the day of use.
Leaves of cabbage were dipped in test solution and air-dried. Treated leaves were placed in petri dishes lined with moist filter paper and inoculated with ten 3rd instar larvae. Mortality was recorded 72 hours after treatment. Feeding damages were also recorded using a scale of 0-100%.

Anthonomus grandis = experiment: Boll weevil (Anthonomus grandis) microtiter plate insect diet test; conditions: 120 h, egg and larval mortality after 5 days, read-out: mortality in comparison with untreated controls
Method: B.1 Boll Weevil (Anthonomus grandis)
For evaluating control of boll weevil (Anthonomus grandis) the test unit consisted of 96-well-microtiter plates containing an insect diet and 5-10 A. grandis eggs.
(§1) The compounds were formulated using a solution containing 75% v/v water and 25% v/v DMSO. Different concentrations of formulated compounds were sprayed onto the insect diet at 5 μl, using a custom built micro atomizer, at two replications.
After application, microtiter plates were incubated at about 25±1° C. and about 75±5% relative humidity for 5 days. Egg and larval mortality was then visually assessed.

Spodoptera eridania = experiment: Southern armyworm (Spodoptera eridania), 2nd instar larvae, foliar spray on lima bean; conditions: 96 h, 4 days after treatment, read-out: mortality in comparison with untreated controls
Method: B.9 Southern Armyworm (Spodoptera eridania), 2nd Instar Larvae
The active compounds were formulated by a Tecan liquid handler in 100% cyclohexanone as a 10,000 ppm solution supplied in tubes. The 10,000 ppm solution was serially diluted in 100% cyclohexanone to make interim solutions. These served as stock solutions for which final dilutions were made by the Tecan in 50% acetone:50% water (v/v) into 5 or 10 ml glass vials. A nonionic surfactant (Kinetic®) was included in the solution at a volume of 0.01% (v/v). The vials were then inserted into an automated electrostatic sprayer equipped with an atomizing nozzle for application to plants/insects.
Lima bean plants (variety Sieva) were grown 2 plants to a pot and selected for treatment at the 1st true leaf stage. Test solutions were sprayed onto the foliage by an automated electrostatic plant sprayer equipped with an atomizing spray nozzle. The plants were dried in the sprayer fume hood and then removed from the sprayer. Each pot was placed into perforated plastic bags with a zip closure. About 10 to 11 armyworm larvae were placed into the bag and the bags zipped closed. […] Mortality and reduced feeding were assessed 4 days after treatment, compared to untreated control plants.

Dichromothrips corbetti = experiment: Orchid thrips (Dichromothrips corbetti) floral-immersion test; conditions: adult thrips, 72 hours after treatment, read-out: mortality in comparison with untreated controls
Method: B.2 Orchid Thrips (Dichromothrips Corbetti)
Dichromothrips corbetti adults used for bioassay were obtained from a colony maintained continuously under laboratory conditions. For testing purposes, the test compound is diluted in a 1:1 mixture of acetone:water (vol:vol), plus Kinetic HV at a rate of 0.01% v/v.
Thrips potency of each compound was evaluated by using a floral-immersion technique. All petals of individual, intact orchid flowers were dipped into treatment solution and allowed to dry in Petri dishes. Treated petals were placed into individual resealable plastic along with about 20 adult thrips. All test arenas were held under continuous light and a temperature of about 28° C. for duration of the assay. After 3 days, the numbers of live thrips were counted on each petal. The percent mortality was recorded 72 hours after treatment.

Ceratitis capitata = experiment: Mediterranean fruitfly (Ceratitis capitata) microtiter plate insect diet test; conditions: 120 h, egg and larval mortality after 5 days, read-out: mortality in comparison with untreated controls
Method: B.4 Mediterranean Fruitfly (Ceratitis capitata)
For evaluating control of Mediterranean fruitfly (Ceratitis capitata) the test unit consisted of microtiter plates containing an insect diet and 50-80 C. capitata eggs.
as §1
(§2) After application, microtiter plates were incubated at about 28±1° C. and about 80±5% relative humidity for 5 days. Egg and larval mortality was then visually assessed.

Heliothis virescens = experiment: Tobacco budworm (Heliothis virescens) microtiter plate insect diet test; conditions: 120 h, egg and larval mortality after 5 days, read-out: mortality in comparison with untreated controls
Method: B.5 Tobacco Budworm (Heliothis virescens)
For evaluating control of tobacco budworm (Heliothis virescens) the test unit consisted of 96-well-microtiter plates containing an insect diet and 15-25 H. virescens eggs.
The compounds were formulated using a solution containing 75% v/v water and 25% v/v DMSO. Different concentrations of formulated compounds were sprayed onto the insect diet at 10 μl, using a custom built micro atomizer, at two replications.
as §2

Nephotettix virescens = experiment: Rice green leafhopper (Nephotettix virescens) spray test on rice seedlings; conditions: adults, after 72 hours, read-out: mortality in comparison with untreated controls
Method: B.7 Rice Green Leafhopper (Nephotettix virescens)
Rice seedlings were cleaned and washed 24 hours before spraying. The active compounds were formulated in 1:1 acetone:water (vol:vol), and 0.01% vol/vol surfactant (Kinetic HV) was added. Potted rice seedlings were sprayed with 5-6 ml test solution, air dried, covered with Mylar cages cages and inoculated with 10 adults. Treated rice plants were kept at about 28-29° C. and relative humidity of about 50-60%. Percent mortality was recorded after 72 hours.

Myzus persicae = experiment: Green peach aphid (Myzus persicae) systemic test, artificial diet under membrane; conditions: 72 h, adult aphids, after 3 days, read-out: mortality in comparison with untreated controls
Text: B.6 Green Peach Aphid (Myzus persicae)
For evaluating control of green peach aphid (Myzus persicae) through systemic means the test unit consisted of 96-well-microtiter plates containing liquid artificial diet under an artificial membrane.
The compounds were formulated using a solution containing 75% v/v water and 25% v/v DMSO. Different concentrations of formulated compounds were pipetted into the aphid diet, using a custom built pipetter, at two replications.
After application, 5-8 adult aphids were placed on the artificial membrane inside the microtiter plate wells. The aphids were then allowed to suck on the treated aphid diet and incubated at about 23±1° C. and about 50±5% relative humidity for 3 days. Aphid mortality and fecundity was then visually assessed.

N#CC1CCN(Cc2cn(-c3ccc(Cl)c(Cl)c3)nc2C=NOCC(F)(F)F)CC1 (mixture of isomers) [IA-2, 1-[[1-(3,4-dichlorophenyl)-3-[(E/Z)-2,2,2-trifluoroethoxyiminomethyl]pyrazol-4-yl]methyl]piperidine-4-carbonitrile]
> 75%: mortality at 500 ppm (Aphis craccivora) | mortality at 500 ppm (Plutella xylostella) | mortality at 2500 ppm (Anthonomus grandis) | mortality at 300 ppm (Spodoptera eridania) | mortality at 500 ppm (Dichromothrips corbetti) | mortality at 2500 ppm (Ceratitis capitata) | mortality at 2500 ppm (Heliothis virescens) | mortality at 500 ppm (Nephotettix virescens)

CON=Cc1nn(-c2ccc(Cl)c(Cl)c2)cc1CN1CCC(C#N)CC1 (mixture of isomers) [IA-1, 1-[[1-(3,4-dichlorophenyl)-3-[(E/Z)-methoxyiminomethyl]pyrazol-4-yl]methyl]piperidine-4-carbonitrile]
> 75%: mortality at 500 ppm (Aphis craccivora) | mortality at 500 ppm (Plutella xylostella) | mortality at 2500 ppm (Anthonomus grandis) | mortality at 2500 ppm (Myzus persicae) | mortality at 300 ppm (Spodoptera eridania) | mortality at 500 ppm (Dichromothrips corbetti) | mortality at 2500 ppm (Ceratitis capitata) | mortality at 2500 ppm (Heliothis virescens) | mortality at 500 ppm (Nephotettix virescens)
